Test results from patent publication US7608564B2, “3-heterocyclyl-substituted benzoyl derivatives” (BASF Aktiengesellschaft, priority 1997, dated 2009).

melting point: > 250 °C
Compound: Cn1ncc(C(=O)c2ccc(S(C)(=O)=O)c(C3=NOCC3)c2Cl)c1O [3.35, 4-[2-Chloro-3-(4,5-dihydroisoxazol-3-yl)-4-methylsulfonyl-benzoyl]-5-hydroxy-1-methyl-1H-pyrazole]
